This is an account of results in US20110312890A1, “ACETYLATED AMINO ACIDS AS ANTI-PLATELET AGENTS, NUTRITIONAL AND VITAMIN SUPPLEMENTS” (SIGNATURE R&D HOLDINGS, LLC, priority 2005, published 2011).

SMILES strings stand for the structures. Where “and” joins values, the source holds several entries; their conditions need not be identical. Equal values may be shown once. Non-standard residues stand in square brackets, D forms with d. Residues, ends and D or L forms follow the SMILES beside them. ξ: configuration not given here. ξY = NC(Cc1ccc(O)cc1)C(=O)O; ξS = NC(CO)C(=O)O

Series [1] in a line: Hygroscopicity and handling stability of salts and zwitterions. Type of series: physicochemical. Here is the method:
Salts of compound O-Acetyl-(L)-Serine-O—(O-Acetyl)-L-Serine with various acids, including HCl, MeSO3H and tartaric acid, were prepared. […] The salt with tartaric acid was unstable and produced the zwitterion son attempted recrystallization from water/acetonitrile. The zwitterions of all three compounds were the most convenient forms (non-hygroscopic) for preparation. If needed, salts are prepared in situ during the formulation process.
(§1) A sample of the compound of Ex 3 was tested in D2O with 1 drop of DCl added for a better solubility of the material. […] Stability of the compound of Ex 3 in an aqueous solution as a salt of tartaric acid is much greater. A 400-mg sample of the salt was attempted to recrystallize from 6 ml of boiling acetonitrile and 20 drops of water. The material crystallized as a zwitterion (not a tartrate) with minor traces of the decomposition. However, the recovery was 132 mg only.
(§2) c. The material of Ex 3 as a zwitterion was recrystallized from aqueous 40% EtOH while heating at 70 C for approximately 20 minutes. […] In a solution of 8% acetonitrile/92% aqueous 0.05 mol buffer of KH2PO4 (pH 5). […] Temperature of the analyses greatly affected the outcome of the analyses.

The nature of series [2]: Stability followed by HPLC purity (time in solution, temperature of analysis). It is filed as physicochemical. The note with it: for HPLC purity, same sample analyzed at 10 C: temperature of analysis 10 C (Ex 3: pH 4.5); for HPLC purity, same sample analyzed at 40 C: temperature of analysis 40 C. The protocol: (§3) In addition, HPLC analysis of the products indicated faster degradation when determinations were made at higher temperatures (40 or 25° C. compared to 10 or 15° C.). The purity of the compounds of Ex 4 varied by as much as 20% when the analysis was performed at 25 and 10° C., respectively.
as §2
(§4) f. Instability of the compound of Ex 4 in an aqueous solution as a zwitterion was observed when a recovery of an additional amount of the material from a large freeze-drying flask was attempted. Simple dissolution of a residual material on the walls with DI water followed by freeze-drying has decrease estimated by NMR purity from 95-96% to 87-88%. • g. […] The same sample analyzed at 25 C and 10 C had difference in purity 13-15%, e.g., either 78-80% or 93%.
(§5) Instability of the compound of Ex 5 in an aqueous solution as a zwitterion was observed while doing a purification of an additional amount of the material on C8 silica gel with water/acetonitrile as eluent. • j. The material of the compound of Ex 5 was decomposing faster during HPLC analysis when temperature of the thermostat was higher. The same sample analyzed at 40 C and 15 C had purity 97% or 99%, correspondingly. • k.

Series [3] can be described thus: Stability in solution or solid state followed by NMR. Type of series: physicochemical. Here is the method:
as §3, §1, §4, §5

Series [4] has as its system platelet aggregation. The series is described as follows: Whole blood clotting time by capillary tube method in human volunteers. Type of series: in vivo. The note with it: for Max % Increase in clotting time: versus time zero. The protocol: A Test Method was developed to determine clotting time to evaluate the anti, platelet aggregation effect of O-acetyl-L-Tyrosine (OAT) by employing capillary tube method in two human volunteers.
1. Dose Strength: Volunteer 1 (90 Kg) 1000 mg, Volunteer 2 (60 Kg) 350 mg of OAT
3. Route of Administration: Single exposure by […]. 4. Blank Control Self, time zero clotting time
600 mg of O-Acetyl-L-Serine-O-Acetyl-L-Tyrouine was administered to a single human volunteer who weighs 136 lbs and is […]. The procedure was conducted using the protocol of Example 2, except the drug administered was O-Acetyl-L-Serine-O-Acetyl-L-Tyrosine. The results are depicted in FIG. 3.

Series [5] relates to platelet aggregation. The series is described as follows: Clotting time by capillary tube method in Swiss Albino rats (anti platelet aggregation effect). The conditions noted are these: for Clotting time: OAS study, 2 hours post dosing, HCl salt; for Clotting time / Clotting time in minutes, After 4 hrs of administration / Clotting time in minutes, After 24 hrs of administration: single oral gavage; for Significance of clotting times at all dose levels and between the dose levels (FIG. 1): rats, 10-100 mg/kg, average of 5 rats, P<0.5 [sic]; for Clotting time in minutes, After 4 hrs of administration / Clotting time in minutes, After 24 hrs of administration: OAT study. Type of series: in vivo. The protocol: A Test Method was developed to determine clotting time to evaluate the anti platelet aggregation effect of O-acetyl-L-Serine HCl salt (OAS), and O-acetyl-L-Tyrosine (OAT) by employing a capillary tube method using Swiss Albino Rats as the test system.
Young 5-6 weeks old Swiss Albino rats weighing about 200 Gm were used in the following protocol. They were obtained from an established animal supplier.
1. Dose Strength: 10, 20, 50 and 100 mg/kg of OAS and OAT
3. Route of Administration: Single exposure by oral gavage. 4. No. of animals per group: 5
Experimental procedure: The rats were fasted for 18-20 hours before dosing. A Syringe attached to a 16 gauge blunt tipped canula was used for this purpose. Two hours after dosing, the animals were provided with feed. 24 hours (±10 minutes) after the administration of the drug, blood samples were collected (0.2 ml approx) in capillary tubes. Animals were anaesthetized by mild ether inhalation by keeping a cotton swab soaked in ether near the nostrils of the animal. Blood was collected from the orbital sinus onto the capillary tube. […] For the confirmation of clotting, clotting as checked 30 seconds after the last observed clotting. An increase in clotting time compared to vehicle is an index of inhibition of platelet aggregation.
[…] With OAS, only one clotting time measurement, at 2 hours post dosing, was performed.
In FIG. 1, the clotting time in minutes was plotted against Log of the dose in mg/kg, each point being an average of clotting time obtained in 5 rats. A value of zero was assigned to vehicle control (zero dose). […] (AceTyro=O-Acetyl-L-Tyrosine and AceSer=O-Acetyl-L-Serine HCl).

[6] abbreviates: 8% acetonitrile/92% aqueous 0.05 mol buffer of KH2PO4 (pH 5).
Where [7] appears, read: single human volunteer, 136 lbs, 600 mg.
Where [8] appears, read: Group-2, individual rats, likely 10 mg/kg.
Where [9] appears, read: Group-3, individual rats, likely 20 mg/kg.
Setting [10] is: Group-4, individual rats, likely 50 mg/kg.
The mark [11] stands for this setting: Group-5, individual rats, likely 100 mg/kg.

Turning to `CC(=O)OC[C@H](NC(=O)[C@@H](N)COC(C)=O)C(=O)O` [Ex 3, O-acetyl-(L)-serine-O-acetyl-(L)-serine] (H-Ser(Ac)-Ser(Ac)-OH), in series [1] (salts with HCl, MeSO3H and tartaric acid), the Hygroscopicity of salts entry is given as “hygroscopic”. The “Stability of the salt with tartaric acid on attempted recrystallization” value in series [1] (water/acetonitrile, produced the zwitterion) is given as “unstable”.

`CC(=O)OCC(NC(=O)[C@@H](N)COC(C)=O)C(=O)O` (stereo partly shown) [Ex 3, O-acetyl-(L)-serine-O-acetyl-(L)-serine] (H-Ser(Ac)-[ξS](Ac)-OH): in series [2] (setting [6]), the “HPLC purity after 5 days after dissolution” value turned out to be 95.7% and the “HPLC purity in solution before storage” value stood at 97.3%. In series [2], the “HPLC purity, same sample analyzed at 10 C” value stood at 99.4% and the “HPLC purity, same sample analyzed at 40 C” value stood at 97.3%. Moreover, in series [3], the “Stability in solutions during isolation, purification and analyses (qualitative)” value (shortened to “Stability in solutions during isolation”) is listed as “Certain instability”. Moreover, in series [3] (D2O with 1 drop of DCl), the “NMR purity of the fresh prepared sample” value is on record as “about 95%”. Also, the “NMR sample after 4 days at room temperature” value in series [3] (D2O with 1 drop of DCl, three sets of signals found) is “severe decomposition”. In series [1] (compared with D2O/DCl sample), the “Stability in an aqueous solution as a salt of tartaric acid” value was “much greater”. In addition, in series [1] (zwitterion, heating at 70 C for approximately 20 minutes, mother liquor), the “By-product on recrystallization from aqueous 40% EtOH” value was “Significant accumulation of the O, N-acetyl shift's by-product”.

With `CC(=O)OC[C@H](N)C(=O)N[C@H](C(=O)O)[C@@H](C)OC(C)=O` [Ex 4, O-acetyl-(L)-serine-O-acetyl-(L)-threonine] (H-Ser(Ac)-Thr(Ac)-OH), in series [2], the “Variation of purity between HPLC analysis at 25 and 10° C.” value was at most 20%; the “HPLC purity, same sample analyzed at 10 C” value amounted to 93%. In series [2] (same sample), the “Difference in HPLC purity between analysis at 25 C and 10 C” value is 13-15%. Besides, the “HPLC purity, same sample analyzed at 25 C” value in series [2] (temperature of analysis 25 C) is listed as 78-80%. In addition, the “Stability in solutions during isolation” value in series [3] was “greatest instability in the whole series”. For the same compound, in series [3] (zwitterion), the “Purity estimated by NMR before re-dissolution” value is recorded as 95-96%. Also, the “Purity estimated by NMR after dissolution with DI water followed by freeze-drying” value in series [3] (zwitterion, aqueous solution) is given as 87-88%.

In the case of `CC(=O)OC[C@H](N)C(=O)NC(Cc1ccc(OC(C)=O)cc1)C(=O)O` (stereo partly shown) [Ex 5, O-acetyl-(L)-serine-O-acetyl-(L)-tyrosine] (H-Ser(Ac)-[ξY](Ac)-OH), the “HPLC purity, same sample analyzed at 15 C” value in series [2] (temperature of analysis 15 C) stood at 99%. In series [2], the “HPLC purity, same sample analyzed at 40 C” value turned out to be 97%. Moreover, in series [4] (setting [7]), the “Anti platelet activity (blood clotting time, FIG. 3)” value was “significant anti platelet activity” and the “Period of significant anti platelet activity” value worked out at 200 h. The “Stability in solutions during isolation” value in series [3] is on record as “comparable stability of relative to Compound F”. The “O, N-shift by-product formed after 26 hours” value in series [3] (D2O solution (NMR sample)) is recorded as “about 3.4%”. In series [3] (batch B, freshly dissolved material, NMR), the “Decomposition in a solid state after 5 days of storage at 25 C” value was “a trace of the signal at 3.7 ppm (CH2OH group) was observed”. Also, the “O, N-shift impurity after 5 days” value in series [3] (same NMR sample in D2O) was 4.7%.

On to `CC(=O)OC[C@H](N)C(=O)O.Cl` [OAS, O-acetyl-L-Serine HCl salt], for which the “Clotting time” value in series [5] (setting [8]) is 6 minutes (2×) and 8 minutes and 9 minutes (2×); in series [5] (setting [9]), 9 minutes (3×) and 8 minutes (2×); in series [5] (setting [10]), 19 min and 20 min and 16 min and 17 min and 15 min; in series [5] (setting [11]) it was 26 minutes (2×) and 22 minutes and 30 minutes and 29 minutes. For the same compound, the “Significance of clotting times at all dose levels and between the dose levels (FIG. 1)” value in series [5] was “statistically significant”.

With `CC(=O)Oc1ccc(C[C@H](N)C(=O)O)cc1` [OAT, O-acetyl-L-Tyrosine], the Whole blood clotting time worked out at 6.5 min in series [4] (Vol 1 (90 Kg), 1000 mg once, Time 8); 8.5 min in series [4] (Vol 1 (90 Kg), 1000 mg once, Time 12); 8 min in series [4] (Vol 1 (90 Kg), 1000 mg once, Time 24); 7.5 min in series [4] (Vol 1 (90 Kg), 1000 mg once, Time 48); 5.5 min in series [4] (Vol 2 (60 Kg), 350 mg once, Time 2); 6 min in series [4] (Vol 2 (60 Kg), 350 mg once, Time 5). Also, the Whole blood clotting time in series [4] (Vol 2 (60 Kg), 350 mg once, Time 11) stood at 6.75 min; in series [4] (Vol 2 (60 Kg), 350 mg once, Time 22.5), 6.5 min. For the same compound, the “Sustained Increase % in clotting time” value is listed as 25% in series [4] (Vol 1, 1000 mg, at 48 hours after initial dose, listed as O-Acetyl Tyrosine) and 18% in series [4] (Vol 2, 350 mg, last time point). The “Max % Increase in clotting time” value in series [4] (Vol 1, 1000 mg) stood at 42%; in series [4] (Vol 2, 350 mg, listed as O-Acetyl Tyrosine), 23%. The “Time for which increase in clotting time was sustained” value in series [4] (Volunteer 1, 1000 mg) is “at least 48 hours”. Moreover, the “Dose dependence of increase in clotting time” value in series [4] (two human volunteers, 1000 mg and 350 mg) is reported as “dose dependent increase in clotting time”. Moreover, the “Side effects or toxic reactions reported by volunteers” value in series [4] (two human volunteers, single dose 1000 mg or 350 mg) was “Neither volunteer reported any unusual side effects or toxic reactions”. Moreover, the “Clotting time in minutes, After 4 hrs of administration” value is 8 minutes (2×) and 9 minutes (2×) and 10 minutes in series [5] (Group-2, individual rats, group dose not given (doses 10, 20, 50, 100 mg/kg)); 9 minutes (2×) and 10 minutes (2×) and 15 minutes in series [5] (setting [9]); 18 minutes and 19 minutes (2×) and 17 minutes (2×) in series [5] (setting [10]); 21 minutes (2×) and 26 minutes and 29 minutes and 25 minutes in series [5] (setting [11]). Also, the “Clotting time in minutes, After 24 hrs of administration” value is 8 minutes (2×) and 9 minutes (2×) and 7 minutes in series [5] (setting [8]); 9 minutes and 10 minutes (2×) and 8 minutes and 11 minutes in series [5] (setting [9]); 14 minutes (3×) and 16 minutes (2×) in series [5] (setting [10]); 19 min and 23 min and 22 min and 25 min and 24 min in series [5] (setting [11]). Further, the “Significance of clotting times at all dose levels and between the dose levels (FIG. 1)” value in series [5] is “statistically significant”.
